The text below walks through data of US6589961B2, “9-alkylamino-1-nitroacridine derivatives” (New York Medical College, priority 2000, dated 2003).

Several values for one entry are separate records, joined by “and”; a condition that tells them apart may be missing. Equal values may be shown once.

The first assay concerns ascites adenocarcinoma Walker 256. The assay can be described thus: Antitumor activity against ascites adenocarcinoma Walker 256 in rats (survival). In kind it is in vivo. Conditions: dose giving the highest antitumor activity; i.p. on days 3, 4 and 5 after tumor transplantation; five doses tested; Wistar rats. The procedure:
Tumors are transplanted weekly into Wistar rats by intraperitoneal inoculation of 10^6 tumor cells. In the experiments, Walker carcinosarcoma 256 cells are transplanted on day 0 in Wistar rats weighing 75-100 g. by i.p. injection of 10^6 cells per animal. Each acridine is administered i.p. on days 3, 4, and 5 after tumor transplantation. Five rats are in each group at a given drug dose level and a group of 10 rats served as control for all test groups. […] Each acridine is tested at five different doses. The activity of the drug T/C (%) is expressed as % increase in mean survival time (in days) of test group (T) to the mean survival time (in days) of the control (C). Usually, the antitumor activity is presented only for the optimal dose (O.D. mg/kg/day) of tested compounds, at which the highest antitumor activity is observed.
For the compound `CCC(=O)OCCNc1c2ccccc2nc2c(C)ccc([N+](=O)[O-])c12` [9-(2′-propionoxyethylamino)-4-methyl-1-nitroacridine], the Optimal dose was 8 mg/kg.

Compound `COc1ccc2nc3c(C)ccc([N+](=O)[O-])c3c(NCCOC(C)=O)c2c1` [9-(2′-acetoxyethylamino)-7-methoxy-4-methyl-1-nitroacridine] displayed an Optimal dose of 25 mg/kg.

Turning to `COc1ccc([N+](=O)[O-])c2c(NCCCO)c3ccccc3nc12` [9-(3′-hydroxypropylamino)-4-methoxy-1-nitroacridine], the Optimal dose was 2 mg/kg.

`CC(=O)OCCNc1c2ccccc2nc2c(C)ccc([N+](=O)[O-])c12` [9-(2′-acetoxyethylamino)-4-methyl-1-nitroacridine]: the Optimal dose is 8 mg/kg.

As to `CC(=O)OCCCNc1c2ccccc2nc2c(C)ccc([N+](=O)[O-])c12` [9-(3′-acetoxypropylamino)-4-methyl-1-nitroacridine], the Optimal dose is reported as 8 mg/kg.

For the compound `COc1ccc([N+](=O)[O-])c2c(NCCCCO)c3ccccc3nc12` [9-(4′-hydroxybutylamino)-4-methoxy-1-nitroacridine], the Optimal dose is 32 mg/kg.

As for `COc1ccc2nc3c(C)ccc([N+](=O)[O-])c3c(NCCCO)c2c1` [9-(3′-hydroxypropylamino)-7-methoxy-4-methyl-1-nitroacridine], the Optimal dose was 16 mg/kg.

For the compound `COc1ccc([N+](=O)[O-])c2c(NCCO)c3ccccc3nc12` [9-(2′-hydroxyethylamino)-4-methoxy-1-nitroacridine], the Optimal dose is listed as 16 mg/kg.

Compound `COc1ccc2nc3cccc([N+](=O)[O-])c3c(NCCCCO)c2c1` [9-(4′-hydroxybutylamino)-7-methoxy-1-nitroacridine] yielded an Optimal dose of 2 mg/kg.

For the compound `COc1ccc2nc3cccc([N+](=O)[O-])c3c(NCCO)c2c1` [9-(2′-hydroxyethylamino)-7-methoxy-1-nitroacridine], the Optimal dose is reported as 2 mg/kg.

The compound `Cc1ccc([N+](=O)[O-])c2c(NCCO)c3ccccc3nc12` [9-(2′-hydroxyethylamino)-4-methyl-1-nitroacridine] returned an Optimal dose of 4 mg/kg.

The compound `CCCCOCCNc1c2ccccc2nc2c(C)ccc([N+](=O)[O-])c12` [9-(2′-butyloxyethylamino)-4-methyl-1-nitroacridine] displayed an Optimal dose of 8 mg/kg.

As to “9-(4′-hydroxypropylamino)-7-methoxy-4-methyl-1-nitroacridine”, the Optimal dose is on record as 8 mg/kg.

For `Cc1ccc([N+](=O)[O-])c2c(NCCCO)c3ccccc3nc12` [9-(3′-hydroxypropylamino)-4-methyl-1-nitroacridine], the Optimal dose was 2 mg/kg.

The compound `COc1ccc2nc3c(C)ccc([N+](=O)[O-])c3c(NCCO)c2c1` [9-(2′-hydroxyethylamino)-7-methoxy-4-methyl-1-nitroacridine] displayed an Optimal dose of 16 mg/kg.

Turning to `CCC(=O)OC(C)CNc1c2ccccc2nc2c(C)ccc([N+](=O)[O-])c12` (stereo not drawn) [9-(2′-propionoxypropylamino)-4-methyl-1-nitroacridine], the Optimal dose was found to be 8 mg/kg.

Consider `CCC(=O)OCCNc1c2ccccc2nc2cccc([N+](=O)[O-])c12` [9-(2′-propionoxyethylamino)-1-nitroacridine], for which the Optimal dose is given as 1 mg/kg.

`COc1ccc2nc3c(C)ccc([N+](=O)[O-])c3c(NCCCOC(C)=O)c2c1` [9-(3′-acetoxypropylamino)-7-methoxy-4-methyl-1-nitroacridine] showed an Optimal dose of 16 mg/kg.

The compound `COc1ccc2nc3cccc([N+](=O)[O-])c3c(NCCCO)c2c1` [9-(3′-hydroxypropylamino)-7-methoxy-1-nitroacridine] came in with an Optimal dose of 0.5 mg/kg.

The compound `CC(=O)OCCNc1c2ccccc2nc2cccc([N+](=O)[O-])c12` [9-(2′-acetoxyethylamino)-1-nitroacridine] came in with an Optimal dose of 1 mg/kg.

Still in this assay, the particulars now being: mean survival time of test group vs control at the optimal dose; i.p. on days 3, 4 and 5; Wistar rats.
Take `CCC(=O)OCCNc1c2ccccc2nc2c(C)ccc([N+](=O)[O-])c12` [9-(2′-propionoxyethylamino)-4-methyl-1-nitroacridine]: the “Antitumor activity against Walker256 (Survival) Test/Control” value turned out to be 214%.

As for `COc1ccc2nc3c(C)ccc([N+](=O)[O-])c3c(NCCOC(C)=O)c2c1` [9-(2′-acetoxyethylamino)-7-methoxy-4-methyl-1-nitroacridine], the “Antitumor activity against Walker256 (Survival) Test/Control” value is 133%.

For `COc1ccc([N+](=O)[O-])c2c(NCCCO)c3ccccc3nc12` [9-(3′-hydroxypropylamino)-4-methoxy-1-nitroacridine], the “Antitumor activity against Walker256 (Survival) Test/Control” value came out at 157%.

For the compound `CC(=O)OCCNc1c2ccccc2nc2c(C)ccc([N+](=O)[O-])c12` [9-(2′-acetoxyethylamino)-4-methyl-1-nitroacridine], the “Antitumor activity against Walker256 (Survival) Test/Control” value was found to be 233%.

In the case of `CC(=O)OCCCNc1c2ccccc2nc2c(C)ccc([N+](=O)[O-])c12` [9-(3′-acetoxypropylamino)-4-methyl-1-nitroacridine], the “Antitumor activity against Walker256 (Survival) Test/Control” value came out at 157%.

Turning to `COc1ccc([N+](=O)[O-])c2c(NCCCCO)c3ccccc3nc12` [9-(4′-hydroxybutylamino)-4-methoxy-1-nitroacridine], the “Antitumor activity against Walker256 (Survival) Test/Control” value is 200%.

Take `COc1ccc2nc3c(C)ccc([N+](=O)[O-])c3c(NCCCO)c2c1` [9-(3′-hydroxypropylamino)-7-methoxy-4-methyl-1-nitroacridine]: the “Antitumor activity against Walker256 (Survival) Test/Control” value was 183%.

Consider `COc1ccc([N+](=O)[O-])c2c(NCCO)c3ccccc3nc12` [9-(2′-hydroxyethylamino)-4-methoxy-1-nitroacridine], for which the “Antitumor activity against Walker256 (Survival) Test/Control” value was found to be 200%.

For the compound `COc1ccc2nc3cccc([N+](=O)[O-])c3c(NCCCCO)c2c1` [9-(4′-hydroxybutylamino)-7-methoxy-1-nitroacridine], the “Antitumor activity against Walker256 (Survival) Test/Control” value was found to be 157%.

With `COc1ccc2nc3cccc([N+](=O)[O-])c3c(NCCO)c2c1` [9-(2′-hydroxyethylamino)-7-methoxy-1-nitroacridine], the “Antitumor activity against Walker256 (Survival) Test/Control” value was 150% and 200%.

Take `Cc1ccc([N+](=O)[O-])c2c(NCCO)c3ccccc3nc12` [9-(2′-hydroxyethylamino)-4-methyl-1-nitroacridine]: the “Antitumor activity against Walker256 (Survival) Test/Control” value was determined as 217%.

As to `CCCCOCCNc1c2ccccc2nc2c(C)ccc([N+](=O)[O-])c12` [9-(2′-butyloxyethylamino)-4-methyl-1-nitroacridine], the “Antitumor activity against Walker256 (Survival) Test/Control” value is 217%.

Take “9-(4′-hydroxypropylamino)-7-methoxy-4-methyl-1-nitroacridine”: the “Antitumor activity against Walker256 (Survival) Test/Control” value came to 183%.

In the case of `Cc1ccc([N+](=O)[O-])c2c(NCCCO)c3ccccc3nc12` [9-(3′-hydroxypropylamino)-4-methyl-1-nitroacridine], the “Antitumor activity against Walker256 (Survival) Test/Control” value came out at 233%.

In the case of `COc1ccc2nc3c(C)ccc([N+](=O)[O-])c3c(NCCO)c2c1` [9-(2′-hydroxyethylamino)-7-methoxy-4-methyl-1-nitroacridine], the “Antitumor activity against Walker256 (Survival) Test/Control” value worked out at 233%.

Regarding `CCC(=O)OC(C)CNc1c2ccccc2nc2c(C)ccc([N+](=O)[O-])c12` (stereo not drawn) [9-(2′-propionoxypropylamino)-4-methyl-1-nitroacridine], the “Antitumor activity against Walker256 (Survival) Test/Control” value came out at 257%.

`CCC(=O)OCCNc1c2ccccc2nc2cccc([N+](=O)[O-])c12` [9-(2′-propionoxyethylamino)-1-nitroacridine]: the “Antitumor activity against Walker256 (Survival) Test/Control” value is reported as 200%.

As to `COc1ccc2nc3c(C)ccc([N+](=O)[O-])c3c(NCCCOC(C)=O)c2c1` [9-(3′-acetoxypropylamino)-7-methoxy-4-methyl-1-nitroacridine], the “Antitumor activity against Walker256 (Survival) Test/Control” value is given as 217%.

Turning to `COc1ccc2nc3cccc([N+](=O)[O-])c3c(NCCCO)c2c1` [9-(3′-hydroxypropylamino)-7-methoxy-1-nitroacridine], the “Antitumor activity against Walker256 (Survival) Test/Control” value is 182% and 229%.

For the compound `CC(=O)OCCNc1c2ccccc2nc2cccc([N+](=O)[O-])c12` [9-(2′-acetoxyethylamino)-1-nitroacridine], the “Antitumor activity against Walker256 (Survival) Test/Control” value was 167%.

For the next assay, the system named is Dunning G cells. The assay can be described thus: Antitumor activity in Dunning G induced tumors in Copenhagen rats. In kind it is in vivo. As to conditions: 0.6 mg/Kg body weight i.p. twice a week for three weeks (FIG. 1 legend says 0.8 mg/Kg), two weeks after treatment withdrawal. The procedure: Four to five week old Copenhagen rats are purchased from Harlan Sprague Dawley, Indianapolis, Ind., and allowed to acclimate for one week, feeding on Purina 5001 rat chow. At the end of one week, the rats are randomized into different experimental groups. Body weights of the animals measured twice a week.
Live Dunning G cells (one million/rat) are injected subcutaneously in all animals to induce tumors. Dunning G cells are non-metastatic tumor producing prostate cancer cells derived from spontaneous tumors from Copenhagen rats. Dunning G and MAT-LyLu cells (Yedavelli et al, 1999, Int. J. Mol. Med. 4:243-248) are grown in RPMI 1640 containing 10% fetal bovine serum (FBS) supplemented with penicillin (50 IU/mL), streptomycin (50 μg/mL), 2 mM L-glutamine and 2.5 mM dexamethasone. Cells are fed twice a week and are trypsinized with 0.05% trypsin-EDTA at 70-80 percent cell confluency.
Animals are injected i.p twice a week with 9-(2′-hydroxyethylamino)-4-methyl-1-nitroacridine (0.8 or 1.0 mg/Kg body weight) 1-nitro-9-hydroxyethylaminoacridine (0.6 mg/Kg body weight) twice a week for three weeks. Injections are started on day 25 for animals injected with Dunning G cells when tumors are palpable (0.5 cm). All animals are housed in hanging cages with three/four animals per cage and had ad libitum access to food and drinking water and are kept on twelve hour diurnal cycle. All injections and tumor measurements are performed under light anesthesia (metofane inhalation). Experimental end point measurements include body weight, tumor incidence. The experiment is terminated when the tumor size in the control animals is 3 cms diameter. Sacrifice of the animals is done by carbon dioxide asphyxiation.
Stock solution of 9-(2′-hydroxyethylamino)-4-methyl-1-nitroacridine is made in dimethylsulfoxide at 0.16 mg/ml. All drugs for injection in animals are diluted in PBS such that the total volume injected is between 0.1 to 0.2 mL. Stock solution of 1-nitro-9-hydroxyethylaminoacridine is made in dimethylsulfoxide at 0.12 mg/ml.
Compound `O=[N+]([O-])c1cccc2nc3ccccc3c(NCCO)c12` [1-nitro-9-hydroxyethylaminoacridine, reference compound] returned a reduction of tumors of 50%.

The same assay, now with this note: 0.8 mg/kg i.p. twice a week for three weeks, two weeks after treatment withdrawal.
`Cc1ccc([N+](=O)[O-])c2c(NCCO)c3ccccc3nc12` [9-(2′-hydroxyethylamino)-4-methyl-1-nitroacridine] yielded a reduction of tumors of 65%.

Staying with this assay, now noted: 1.0 mg/kg i.p. twice a week for three weeks, two weeks after treatment withdrawal.
`Cc1ccc([N+](=O)[O-])c2c(NCCO)c3ccccc3nc12` [9-(2′-hydroxyethylamino)-4-methyl-1-nitroacridine]: the reduction of tumors is recorded as 75%.

The subject of another assay is TSU cells. The assay can be described thus: Antitumor activity on human prostate tumor (TSU) xenografts in nude mice. In kind it is in vivo. As to conditions: 0.6 mg/kg twice weekly for three weeks from day 7; Balb c/nu/nu mice. The procedure: Tumors are induced in six week old Balb c/nu/nu mice which are allowed to acclimate for two weeks by subcutaneous injection of 2×10^6 TSU cells per mouse. TSU cells are human prostate cancer cells (Iizumi et al., 1987, J. Urol. 137:1304-1306). TSU cells are grown in RPMI-1640 medium supplemented with 10% fetal bovine serum and the antibiotics penicillin (50 IU/ml), streptomycin (50 μg/ml) and 2 mM L-glutamine. Cells are fed with fresh media twice a week and are trypsinized using 0.05% trypsin-EDTA. Cells used for injection are always in the log phase of their growth (70-80%) confluent flask and cell viability is checked by trypan-blue exclusion test prior to injection. Only cells >95% […] are used.
Tumors are palpable in the mice by day 7 when treatment with the two drugs, mitoxantrone (0.6 mg/kg) and 9-(2′-hydroxyethylamino)-4-methyl-1-nitroacridine (0.8 mg/kg) is initiated. Treatment is continued twice weekly for three weeks. Mice are lightly anesthetized and tumors are measured and are weighed weekly. The stock concentrations of the drug are 0.12 mg/ml in PBS for mitoxantrone and 0.16 mg/ml in dimethylsulfoxide (DMSO) for 9-(2′-hydroxyethylamino)-4-methyl-1-nitroacridine. Mice are housed 5 animals/cage.
In general terms: A xenograft is tissue or cells of one species grown in another, often human tumour cells in immunodeficient mice.
As for `O=C1c2c(O)ccc(O)c2C(=O)c2c(NCCNCCO)ccc(NCCNCCO)c21` [mitoxantrone, reference compound], the “effect on tumors (FIG. 2)” value is “showed a reduction till three weeks and the tumors started growing eight weeks after withdrawal of therapy”.

The same assay, now with this note: 0.8 mg/kg twice weekly for three weeks from day 7; Balb c/nu/nu mice; observation up to 11 weeks.
Turning to `Cc1ccc([N+](=O)[O-])c2c(NCCO)c3ccccc3nc12` [9-(2′-hydroxyethylamino)-4-methyl-1-nitroacridine], the “effect on tumors (FIG. 2)” value was “reduction of the tumors until completely tumor free by five weeks and remained in force until 11 weeks”.
